We go through two molecules from patent US20250297244A1, “COMPOSITIONS AND METHODS FOR THE DIAGNOSIS AND TREATMENT OF SEVERE COVID 19 AND OTHER IN[…]” (THE CHILDREN'S HOSPITAL OF PHILADELPHIA, priority 2022, published 2025).

In experiment [1] the test system is human tonsillar organoids. Put plainly: in vitro human tonsillar organoid model of T cell-dependent germinal center B cell differentiation. The format is cell-based.
The next experiment concerns human CD4+ T cells. In words: proliferation of activated human CD4+ T cells (anti-CD3+anti-CD28 beads, CFSE flow cytometry). Format: cell-based. The settings on record: activated in vitro for 72 hours with anti-CD3+anti-CD28 beads. The procedure:
FIG. 13. […] Human CD4+ T cells were activated in vitro for 72 hours using anti-CD3+anti-CD28 beads, and cell division was monitored by flow cytometry using CFSE, and the number of daughter cells generated was determined.
For orientation: Flow cytometry measures light scatter and fluorescence of single cells or particles in a stream.

The next experiment deals with murine Th1 cells. In words: IFNg production by murine Th1 cells after in vitro activation. The format is cell-based. The settings on record: low doses; anti-CD3+anti-CD28 beads for 6 hours. The protocol: (§1) FIGS. 14A-14B. Dose-dependent effect of lometrexol on IFNg production by murine Th1 cells (FIG. 14A) and IL-4 production by murine Th2 cells (FIG. 14B) following in vitro activation with anti-CD3+anti-CD28 beads for 6 hours.

For the next experiment, the system named is murine Th2 cells. Put plainly: IL-4 production by murine Th2 cells after in vitro activation. Particulars: low doses; anti-CD3+anti-CD28 beads for 6 hours. Format: cell-based. The protocol: as §1
In experiment [2] the target is thymidylate synthase (TS) (Homo sapiens, UniProt P04818). Particulars: in vitro studies; cited from earlier work.
The target in experiment [3] is dihydrofolate reductase (DHFR) (Homo sapiens, UniProt P00374). The settings on record: in vitro studies; cited from earlier work.

Entries after “also recorded” stand apart in the source; their conditions may differ.

Chain of dihydrofolate reductase (DHFR) (P00374 whole entry, species assumed): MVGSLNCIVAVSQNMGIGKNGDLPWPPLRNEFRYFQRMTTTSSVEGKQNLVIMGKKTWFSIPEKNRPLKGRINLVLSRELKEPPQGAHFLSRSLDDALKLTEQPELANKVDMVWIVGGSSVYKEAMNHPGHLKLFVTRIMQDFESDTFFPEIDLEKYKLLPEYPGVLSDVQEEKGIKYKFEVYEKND
Chain of thymidylate synthase (TS) (P04818 whole entry, species assumed): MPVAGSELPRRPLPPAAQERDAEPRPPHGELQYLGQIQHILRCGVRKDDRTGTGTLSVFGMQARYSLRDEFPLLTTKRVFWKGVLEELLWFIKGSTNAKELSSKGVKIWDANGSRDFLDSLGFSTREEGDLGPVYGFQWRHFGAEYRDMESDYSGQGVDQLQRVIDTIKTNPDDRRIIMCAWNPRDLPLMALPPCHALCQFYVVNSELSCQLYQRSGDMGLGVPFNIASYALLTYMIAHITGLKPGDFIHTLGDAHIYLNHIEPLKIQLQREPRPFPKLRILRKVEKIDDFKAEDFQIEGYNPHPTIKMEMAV

Take `Nc1nc2c(c(=O)[nH]1)C[C@@H](CCc1ccc(C(=O)N[C@@H](CCC(=O)O)C(=O)O)cc1)CN2` [lometrexol]: in experiment [1] (day 7 of culture, lometrexol added after 48 hours, three tonsil donors), the “CD27+CD38+ GCB cell plasmablast differentiation / plasmablast frequency” value is recorded as “abrogated plasmablast differentiation in a dose-dependent manner; also recorded: Plasmablast frequency diminishment”. Further, in experiment [1] (day 7 tonsillar organoids), the “B or T cell survival (viability)” value is given as “without affecting” and the TFH frequency result is “without affecting”. Moreover, the “T cell-B cell collaboration (humoral immune response)” value in experiment [1] (tonsil organoid system) is recorded as “blocks”. In the experiment on human CD4+ T cells, the “proliferation of activated CD4+ T cells (cell division, number of daughter cells)” value is “can inhibit; also recorded: Dose-dependent inhibition”. Also, the “production of IFNγ from Th1 cells” value with murine Th1 cells is listed as “at low doses enhances”. For the same molecule, in the experiment on murine Th2 cells, the “production of IL-4 from Th2 cells” value is recorded as “at low doses enhances”.

In the case of `Nc1nc2[nH]cc(CCc3ccc(C(=O)N[C@@H](CCC(=O)O)C(=O)O)cc3)c2c(=O)[nH]1` [pemetrexed], the “inhibition of thymidylate synthase (TS)” value in experiment [2] is reported as “inhibits”. Further, the “inhibition of dihydrofolate reductase (DHFR)” value in experiment [3] is recorded as “inhibits”.
